Data taken from publication PMC7226586 (Journal of Medicinal Chemistry, 2019).
Entries after “also recorded” stand apart in the source; their conditions may differ.

How the values were obtained:
[1] = target: T1, purified recombinant CYP46A1 (Homo sapiens, UniProt Q9Y6A2); test: CYP46A1 enzyme assay; assay type: biochemical; details: for shape of concentration dependence curve of CYP46A1 activity / CYP46A1 inhibition at the concentrations tested: 0–100 μM compound; for CYP46A1 inhibition at the 60–100 μM concentrations: 60–100 μM compound; for effect of co-incubation with L-Glu on CYP46A1 activation / maximal activation in the presence of L-Glu (fold): 100 μM L-Glu; for effect of co-incubation with L-Glu on CYP46A1 activation / effect of co-incubation with (S)-EFV on CYP46A1 activation / maximal activation in the presence of L-Glu (fold): 20 μM compound; for effect of co-incubation with (S)-EFV on CYP46A1 activation: 20 μM (S)-EFV
[2] = target: substrate-free CYP46A1 (Homo sapiens, UniProt Q9Y6A2); test: Spectral titrations of substrate-free CYP46A1; assay type: binding; details: for spectral response type, substrate-free CYP46A1: P450 difference spectrum
[3] = target: cholesterol-bound CYP46A1 (Homo sapiens, UniProt Q9Y6A2); test: Spectral titrations of cholesterol-bound CYP46A1; assay type: binding; details: 20 μM cholesterol; for spectral response type, cholesterol-bound CYP46A1 / spectral response fit, cholesterol-bound CYP46A1: 18 °C
[4] = target: CYP46A1 allosteric sites (EFV binding site, Glu binding site) (Homo sapiens, UniProt Q9Y6A2); test: Mapping of the allosteric site; assay type: biochemical; details: for allosteric site of binding: from co-incubations and mutants; for P450 activation with replacements within the Glu-binding site: CYP46A1 mutants K358A, F416A and Y427A; for P450 activation with replacements within the Glu-binding site / P450 activation with replacements within the EFV-binding site: 20 μM compound; for P450 activation with replacements within the EFV-binding site: CYP46A1 mutants R415A and F405A
[5] = target: CYP46A1 (Homo sapiens, UniProt Q9Y6A2); test: Stopped-flow kinetics of compound binding to and release from CYP46A1; details: for mechanism of binding to substrate-free CYP46A1: stopped-flow experiments; for spectral binding at 15–30 μM, stopped-flow: substrate-free CYP46A1, 15–30 μM compound
[6] = plasma of EFV-treated subjects; cited from earlier work
[7] = cited from earlier work
[8] = concentrations mimicking the 600 mg/day EFV dose; cited from earlier work
[9] = target: T1, purified recombinant CYP46A1; details: previous study; cited from earlier work
[10] = system: protein (albumin); details: cited from earlier work
[11] = within 1 h of an intraperitoneal administration; cited from earlier work
[12] = system: CYP46A1 in the brain; details: 0.32 (mg/da)/kg body dose, mice; cited from earlier work
[13] = Cholesterol binding to HPCD; details: read-out: Kd of cholesterol for HPCD; 50 mM KPi buffer (pH 7.2) containing 100 mM NaCl at 24 °C

| shape of concentration dependence curve of CYP46A1 activity [1] | CYP46A1 inhibition at the 60–100 μM concentrations [1] | fit of spectral titration curve, substrate-free CYP46A1 [2] | spectral response type, substrate-free CYP46A1 ([2]; 18 °C) | fit of spectral titration curve, cholesterol-bound CYP46A1 [3] | spectral response type, cholesterol-bound CYP46A1 [3] | effect of co-incubation with L-Glu on CYP46A1 activation [1] | spectral response fit, cholesterol-bound CYP46A1 [3] | allosteric site of binding [4] | CYP46A1 activation compared with that with (S)-EFV [1] | SMILES | other results |
| --- | --- | --- | --- | --- | --- | --- | --- | --- | --- | --- | --- |
| bell-shaped | did not inhibit | hyperbolic | type 2 | sigmoidal | reverse type 1-like | – | – | – | – | O=C1Nc2c(O)cc(Cl)cc2C(C#CC2CC2)(C(F)(F)F)O1 (racemic) [rac-1] | – |
| bell-shaped | did not inhibit | hyperbolic | type 2 | sigmoidal | reverse type 1-like | synergistically activated | S | both EFV- and Glu-binding sites | – | O=C1Nc2cc(O)c(Cl)cc2C(C#CC2CC2)(C(F)(F)F)O1 (racemic) [rac-2] | – |
| essentially hyperbolic | – | hyperbolic | type 2 | hyperbolic | reverse type 1-like | lower | – | mainly with the allosteric site for Glu | – | O=C1Nc2c(O)cc(Cl)cc2C(C#CC2(O)CC2)(C(F)(F)F)O1 (racemic) [rac-3] | effect of co-incubation with (S)-EFV on CYP46A1 activation [1]: synergistic CYP46A1 activation; difference in the apparent spectral Kd versus (S)-EFV ([2]; substrate-free CYP46A1): 2 fold; kon lower than that of (S)-EFV [5]: 3 fold; mechanism of binding to substrate-free CYP46A1 [5]: conformational-selection; rates of binding (kobserved) lower than those for (S)-EFV ([5]; substrate-free CYP46A1): ≥ 7 fold; spectral binding at 15–30 μM, stopped-flow [5]: essentially no spectral binding; P450 activation with replacements within the Glu-binding site [4]: largely reduced or abolished; P450 activation with replacements within the EFV-binding site [4]: not significantly affected |
| bell-shaped | – | hyperbolic | type 1 | sigmoidal | reverse type 1-like | synergistically activated | S | preferential EFV-site binding | similar | O=C1CC(C#CC2CC2)(C(F)(F)F)c2cc(Cl)ccc2N1 (racemic) [rac-8] | – |
| bell-shaped | – | hyperbolic | type 1 | sigmoidal | reverse type 1-like | synergistically activated | S | preferential EFV-site binding | lower | CCCC#CC1(C(F)(F)F)OC(=O)Nc2ccc(Cl)cc21 (racemic) [rac-9] | – |
| – | – | – | – | – | – | – | – | – | – | O=C1Nc2cc(O)c(Cl)cc2[C@@](C#CC2CC2)(C(F)(F)F)O1 [7-hydroxyEFV, (S)-7-hydroxyEFV] | plasma level [6]: 8.8 to 225 ng/mL; cerebrospinal fluid level [7]: 0.63 ng/mL |
| bell-shaped | inhibitory | hyperbolic | type 2 | sigmoidal | reverse type 1 | – | S | – | – | O=C1Nc2ccc(Cl)cc2[C@@](C#CC2CC2)(C(F)(F)F)O1 [(S)-EFV, (S)-6-chloro-4-(cyclopropylethynyl)-4-(trifluoromethyl)-1,4-dihydro-2H-benzo[d][1,3]oxazin-2-one, reference compound] | mechanism of binding to substrate-free CYP46A1 [5]: conformational-selection; spectral binding at 15–30 μM, stopped-flow [5]: measurable; CYP46A1 inhibition at 100 μM [9]: almost completely inhibited; plasma level [6]: 2170 to 3350 ng/mL; cerebrospinal fluid level [7]: 13.9 to 19.5 ng/mL; protein (albumin)-bound in the blood [10]: ≥ 99.6%; brain levels exceeding those in the plasma [11]: 4.6 times; effect on CYP46A1 in the brain [12]: inhibited |
| – | – | – | – | – | – | – | – | – | – | CC(C)CCC[C@@H](C)[C@H]1CC[C@H]2[C@@H]3CC=C4C[C@@H](O)CC[C@]4(C)[C@H]3CC[C@]12C [cholesterol] | Kd ([2]; Kd for substrate-free CYP46A1 (M), cholesterol, from an apparent Kd of 80 nM [20] after the correction for HPCD binding): 9e-09 M; calculated kon higher than that for rac-3 [5]: 1.9 fold; calculated kon lower than that for (S)-EFV [5]: 1.7 fold; koff ([5]; read-out: experimental koff (s^–1)): 0.012 ± 0.002 s⁻¹; Kd [13]: 540 µM |

| SMILES | shape of concentration dependence curve of CYP46A1 activity [1] | CYP46A1 inhibition at the 60–100 μM concentrations [1] | fit of spectral titration curve, substrate-free CYP46A1 [2] | spectral response type, substrate-free CYP46A1 ([2]; 18 °C) | fit of spectral titration curve, cholesterol-bound CYP46A1 [3] | spectral response type, cholesterol-bound CYP46A1 [3] | effect of co-incubation with L-Glu on CYP46A1 activation [1] | spectral response fit, cholesterol-bound CYP46A1 [3] | allosteric site of binding [4] | CYP46A1 activation compared with that with (S)-EFV [1] | other results |
| --- | --- | --- | --- | --- | --- | --- | --- | --- | --- | --- | --- |
| O=C1Cc2ccc(Cl)cc2C(C#CC2CC2)(C(F)(F)F)O1 (racemic) [rac-5] | sigmoidal-like | – | sigmoidal | type 1 | – | did not seem to elicit a quantifiable spectral response; also recorded: no spectral response | synergistically activated | – | both EFV- and Glu-binding sites | lower | CYP46A1 inhibition at the concentrations tested [1]: did not inhibit; spectral response fit, substrate-free CYP46A1 ([2]; 18 °C): S |
| CC1Nc2ccc(Cl)cc2C(C#CC2CC2)(C(F)(F)F)O1 (racemic) [rac-7] | bell-shaped | – | hyperbolic | type 1 | – | did not seem to elicit a quantifiable spectral response; also recorded: no spectral response | abolished | – | mainly with the allosteric site for Glu | lower | effect of co-incubation with (S)-EFV on CYP46A1 activation [1]: synergistic CYP46A1 activation; maximal activation in the presence of L-Glu (fold) [1]: abolished; P450 activation with replacements within the Glu-binding site [4]: largely reduced or abolished; P450 activation with replacements within the EFV-binding site [4]: not significantly affected |
| O=C1Nc2c(O)cc(Cl)cc2[C@@](C#CC2CC2)(C(F)(F)F)O1 [(S)-1, (S)-8-hydroxyEFV] | bell-shaped | did not inhibit | hyperbolic | type 2 | sigmoidal | reverse type 1-like | synergistically activated | S | both EFV- and Glu-binding sites | – | plasma level [6]: 315 to 2160 ng/mL; cerebrospinal fluid level [7]: 3.1 to 5.3 ng/mL; cell damage or death in cell culture [8]: induce cell damage or death |
| FC(F)(F)[C@@]1(C#CC2CC2)OCNc2ccc(Cl)cc21 [(S)-6] | bell-shaped | – | hyperbolic | type 1 | – | did not seem to elicit a quantifiable spectral response; also recorded: no spectral response | abolished | – | mainly with the allosteric site for Glu | lower | CYP46A1 inhibition at the concentrations tested [1]: did not inhibit; effect of co-incubation with (S)-EFV on CYP46A1 activation [1]: synergistic CYP46A1 activation; maximal activation in the presence of L-Glu (fold) [1]: abolished; P450 activation with replacements within the Glu-binding site [4]: largely reduced or abolished; P450 activation with replacements within the EFV-binding site [4]: not significantly affected |
